Key:
Assay type in all cases: in vivo
[1] = system: Plasmopara viticola; experiment: D-1a Residual-protective action against Plasmopara viticola on vines; settings: test D-1a residual-protective, vine seedlings, untreated plants showed pathogen attack of 80-100%, read-out: inhibition of fungal infestation
Experimental: (§1) D-1: Action against Plasmopara viticola on vines
(§2) a) Residual-protective action
Vine seedlings are sprayed at the 4- to 5-leaf stage with a spray mixture (0.02% active ingredient) prepared from a wettable powder formulation of the test compound. After 24 hours, the treated plants are infected with a sporangia suspension of the fungus. Fungus infestation is evaluated after incubation for 6 days at 95-100% relative humidity and +20° C.

[2] = system: Plasmopara viticola; experiment: D-1b Residual-curative action against Plasmopara viticola on vines; settings: test D-1b residual-curative, vine seedlings, untreated plants showed pathogen attack of 80-100%, read-out: inhibition of fungal infestation
Experimental: as §1
b) Residual-Curative Action
Vine seedlings are infected at the 4- to 5-leaf stage with a sporangia suspension of the fungus. After incubation for 24 hours in a humidity chamber at 95-100% relative humidity and +20° C., the infected plants are dried and sprayed with a spray mixture (0.02% active ingredient) prepared from a wettable powder formulation of the test compound. After the spray coating has dried, the treated plants are placed in the humidity chamber again. Fungus infestation is evaluated 6 days after infection.

[3] = system: Phytophthora; experiment: D-2a Residual-protective action against Phytophthora on tomato plants; settings: test D-2a residual-protective, untreated plants showed pathogen attack of 80-100%, read-out: inhibition of fungal infestation
Experimental: (§3) D-2: Action against Phytophthora on tomato plants
as §2
(§4) After a cultivation period of 3 weeks, tomato plants are sprayed with a spray mixture (0.02% active ingredient) prepared from a wettable powder formulation of the test compound. After 48 hours, the treated plants are infected with a sporangia suspension of the fungus. Fungus infestation is evaluated after incubation of the infected plants for 5 days at 90-100% relative humidity and +20° C.

[4] = system: Phytophthora; experiment: D-2b Systemic action against Phytophthora on tomato plants; settings: test D-2b systemic (soil watering), untreated plants showed pathogen attack of 80-100%, read-out: inhibition of fungal infestation
Experimental: as §3
as §4, with “watered” for “sprayed”, “ingredient based on the volume of the soil)” for “ingredient)”, “compound. […]” for “compound.”, “96” for “48”, “4” for “5”

[5] = system: Phytophthora; experiment: D-3a Residual-protective action against Phytophthora on potato plants; settings: test D-3a residual-protective, potato plants (Bintje), untreated plants showed pathogen attack of 80-100%, read-out: inhibition of fungal infestation
Experimental: (§5) D-3: Action against Phytophthora on potato plants
as §2
(§6) 2-3 week old potato plants (Bintje variety) are sprayed with a spray mixture (0.02% active ingredient) prepared from a wettable powder formulation of the test compound. After 48 hours, the treated plants are infected with a sporangia suspension of the fungus. Fungus infestation is evaluated after incubation of the infected plants for 4 days at 90-100% relative humidity and +20° C.

[6] = system: Phytophthora; experiment: D-3b Systemic action against Phytophthora on potato plants; settings: test D-3b systemic (soil watering), potato plants (Bintje), untreated plants showed pathogen attack of 80-100%, read-out: inhibition of fungal infestation
Experimental: as §5
as §6, with “watered” for “sprayed”, “ingredient based on the volume of the soil)” for “ingredient)”, “compound. […]” for “compound.”, “C. Fungal infestation is effectively controlled with compounds of Tables 1 to 31.” for “C.”

Measured: inhibition at 200 ppm

C#CCOc1ccc(CCNC(=O)[C@@H](OCC#C)c2ccccc2)cc1OC [Compound E1.002, (S)-2-phenyl-N-[2-(3-methoxy-4-prop-2-ynyloxy-phenyl)-ethyl]-2-prop-2-ynyloxy-acetamide]
80 to 100%: all assays above

C#CCOc1ccc(CCNC(=O)[C@@H](OCC#C)c2ccc(Cl)cc2)cc1OC [Compound E1.011, (S)-2-(4-chloro-phenyl)-N-[2-(3-methoxy-4-prop-2-ynyloxy-phenyl)-ethyl]-2-prop-2-ynyloxy-acetamide]
80 to 100%: all assays above

CCC#CCOc1ccc(CCNC(=O)[C@@H](OCC)c2ccccc2)cc1OC [Compound E1.151]
80 to 100%: [3] | [4]

From US20050026785A1, “Novel phenyl-propargylether derivatives” (priority 2001, published 2005)
